One test has as its system Candida auris biofilm. The experiment in a line: Biofilm CFU killing assay (96-well microtiter plate, 24 and 48 h). The class given is cell-based. The conditions noted are these: clade 3 (strain CA9), compared to clade 1 and clade 2; AgNO3 0.0250 to 0.0025 mg/mL. Here is the method:
C. auris strains, the clinical isolates, were used to study the effects of the nanomaterial on biofilm formation for 24 and 48 h. All analyses were performed with replicates, and mean values were considered. Initially, culture cells from preserved stock at -80° C. were revived by streaking onto Sabauraud dextrose agar (SDA) plates and incubating overnight at 37° C. From the revived plates, a loopful of the strains was inoculated into SDB and further incubated using an orbital shaker at 130 rpm and 37° C. for 24 and 48 h. The biofilm assay was carried out using the 96-well microtiter plate. The cells harvested from overnight SDB cultures were adjusted to a cell density of 10^7 CFU/mL and diluted. […] Post incubation, plates were manually counted and recorded for the number of cells. Later, the quantity of biofilm formation was determined using a colony-forming unit technique (CFU) and determined as per the following formula: A/B×100 (A is the total number of colonies after treatment and B is the number of cells in control). […] Later, the quantity of biofilm formation was determined using the CFU technique. […] Post incubation, plates were manually counted and recorded for the number of cells. Then, the quantity of biofilm formation was determined using the CFU technique and determined as per the following formula: CFU/mL=(Number of colonies×dilution factor)/volume of plated culture. […]

A further test has as its system planktonic C. auris. The experiment in a line: Effect on planktonic C. auris by light microscopy. The class given is cell-based, Candida auris. Particulars: clade 3 (strain CA9), compared to clade 1 and clade 2; AgNO3 0.0250 to 0.0025 mg/mL. How it is done:
The antifungal activity of the nanomaterial on planktonic C. auris strains was determined by using light microscopy examination. Briefly, the inoculum was adjusted to a final concentration of 10^6 cells mL^−1. […] Plates were incubated at 37° C. for 48 h. […] The mean value of the duplicates was recorded, and micrographs were taken. One-way ANOVA analysis was carried out to identify the significance.

Molecules are shown by their SMILES.

Take `O=[N+]([O-])[O-].[Ag+]` [AgNO3, silver nitrate]: the “inhibitory effect on the biofilm” value in the test with Candida auris biofilm is “complete inhibitory effect”. Besides, in the test on planktonic C. auris, the “inhibitory effect on the planktonic cells” value is “complete inhibitory effect”.

Source of the values: patent US12677834B2, “Silver silicalite zeolite nanomaterials for reducing Candida auris biofilms” (Imam Abdulrahman Bin Faisal University, priority 2023, dated 2026).
